This passage reports KI (inactivation) results from PMC3604699 (Biochemistry, 2011).

The assay has as its target sortase A (SrtA) (Staphylococcus aureus, UniProt Q2FV99). The assay can be described thus: HPLC transpeptidation assay, time-dependent inactivation kinetics. It is filed as biochemical. Particulars: read-out: KI.

sortase A (SrtA), sequence (Q2FV99 25-206): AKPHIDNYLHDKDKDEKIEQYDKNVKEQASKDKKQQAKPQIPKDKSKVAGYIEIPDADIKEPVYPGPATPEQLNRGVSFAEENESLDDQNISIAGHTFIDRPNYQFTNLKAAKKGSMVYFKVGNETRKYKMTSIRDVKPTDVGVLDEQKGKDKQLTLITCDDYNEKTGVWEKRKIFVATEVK

As for `OCl` [NaOCl], the KI (inactivation) turned out to be 11.8 ± 3.1 mM.
